Assay results reported in US9181235B2, “Substituted pyridines for modulating the WNT signaling pathway” (NOVARTIS AG, priority 2010, dated 2015).

Each compound was assayed on Wnt signaling (assay: Wnt-Luc reporter assay for pathway inhibition of Wnt signaling). Conditions: Wnt-Luc reporter cells co-cultured with L-cell Wnt3a cells, 24 hours, luciferase signal reduced by 50%.
Assay type: cell-based, mouse (TM3 Wnt-Luc) or human (293 Wnt-Luc); not stated which
Method: This example provides a method that is useful for evaluating test compounds for inhibition of Wnt signaling.
Mouse leydig cell TM3 cells (obtained from American Type Culture Collection, ATCC, Manassas, Va.) are cultured in 1:1 mixture of Ham's F12 medium and Dulbecco's modified Eagle's medium (Gibco/Invitrogen, Carlsbad, Calif.) supplemented with 2.5% FBS (Gibco/Invitrogen, Carlsbad, Calif.) and 5% horse serum (Gibco/Invitrogen, Carlsbad, Calif.), 50 unit/mL penicillin and 50 μg/mL of streptomycin (Gibco/Invitrogen, Carlsbad, Calif.) at 37° C. with 5% CO2 in air atmosphere. TM3 cells in a 10 cm dish are co-transfected with 8 μg of STF-reporter plasmid containing a luciferase gene driven by Wnt-responsive elements and 2 μg of pcDNA3.1-Neo (Gibco/Invitrogen, Carlsbad, Calif.) with 30 μL of FuGENE6 (Roche Diagnostics, Indianapolis, Ind.) following the manufacturer's protocol. Stable cell lines (TM3 Wnt-Luc) were selected with 400 μg/mL of G418 (Gibco/Invitrogen, Carlsbad, Calif.). The TM3 Wnt-Luc cells and L-cell Wnt3a cells (obtained from American Type Culture Collection, ATCC, Manassas, Va.; cultured in Dulbecco's modified Eagle's medium (Gibco/Invitrogen, Carlsbad, Calif.) supplemented with 10% FBS (Gibco/Invitrogen, Carlsbad, Calif.) and 50 unit/mL penicillin and 50 μg/mL of streptomycin (Gibco/Invitrogen, Carlsbad, Calif.) at 37° C. with 5% CO2 in air atmosphere) are trypsinized and co-cultured into a 384-well plate with DMEM medium supplemented with 2% FBS, and treated with different concentrations of a compound of the invention. After 24 hours, the firefly luciferase activities are assayed with the Bright-Glo™ Luciferase Assay System (Promega, Madison, Wis.). The IC50 is measured when the effect of the compound reduces the luminescence signal by 50%.
This example provides another method that is useful for evaluating test compounds for inhibition of Wnt signaling.
Human embryonic kidney 293 cells (obtained from American Type Culture Collection, ATCC, Manassas, Va.) are cultured in DMEM medium (Gibco/Invitrogen, Carlsbad, Calif.) supplemented with 10% FBS (Gibco/Invitrogen, Carlsbad, Calif.), 50 unit/mL penicillin and 50 μg/mL of streptomycin (Gibco/Invitrogen, Carlsbad, Calif.) at 37° C. with 5% CO2 in air atmosphere. 293 cells in a 10 cm dish are co-transfected with 8 μg of STF-reporter plasmid containing a luciferase gene driven by Wnt-responsive elements and 2 μg of pcDNA3.1-Neo (Gibco/Invitrogen, Carlsbad, Calif.) with 30 μL of FuGENE6 (Roche Diagnostics, Indianapolis, Ind.) following the manufacturer's protocol. Stable cell lines (293 Wnt-Luc) were selected with 400 μg/mL of G418 (Gibco/Invitrogen, Carlsbad, Calif.). The 293 Wnt-Luc cells and L-cell Wnt3a cells (obtained from American Type Culture Collection, ATCC, Manassas, Va.) are trypsinized and co-cultured into a 384-well plate with DMEM medium supplemented with 2% FBS, and treated with different concentrations of a compound of the invention. After 24 hours, the firefly luciferase activities are assayed with the Bright-Glo™ Luciferase Assay System (Promega, Madison, Wis.). The IC50 is measured when the effect of the compound reduces the luminescence signal by 50%.

| IC50 [nM] | SMILES |
| --- | --- |
| 1.6 | Cc1cc(CNC(=O)c2ccc(-c3cccnn3)nc2)cnc1-c1ccnc(F)c1 [compound 52, N-{[6-(2-fluoropyridin-4-yl)-5-methylpyridin-3-yl]methyl}-6-(pyridazin-3-yl)pyridine-3-carboxamide] |
| 10.2 | Cc1cc(CNC(=O)c2ccc(-c3cccnn3)nc2)cnc1-c1ccnc(C(F)(F)F)c1 [compound 53, N-({5-methyl-6-[2-(trifluoromethyl)pyridin-4-yl]pyridin-3-yl}methyl)-6-(pyridazin-3-yl)pyridine-3-carboxamide] |
| 1.2 | Cc1cc(CNC(=O)c2ccc(-c3cnccn3)nc2)cnc1-c1ccnc(C(F)(F)F)c1 [compound 54, N-({5-methyl-6-[2-(trifluoromethyl)pyridin-4-yl]pyridin-3-yl}methyl)-6-(pyrazin-2-yl)pyridine-3-carboxamide] |
| 0.8 | Cc1cc(CNC(=O)c2ccc(-c3cnccn3)cn2)cnc1-c1ccnc(C(F)(F)F)c1 [compound 55, N-((3-Methyl-2′-(trifluoromethyl)-2,4′-bipyridin-5-yl)methyl)-5-(pyrazin-2-yl)picolinamide] |
| 34 | O=C(NCc1ccn(-c2ccnc(C(F)(F)F)c2)c(=O)c1)c1ccc(-c2cnccn2)cn1 [compound 56, N-((2-oxo-1-(2-(trifluoromethyl)pyridin-4-yl)-1,2-dihydropyridin-4-yl)methyl)-5-(pyrazin-2-yl)picolinamide] |
| 0.35 | Cc1cc(CNC(=O)c2ccc(-c3cccc(F)c3)cn2)cnc1-c1ccnc(C(F)(F)F)c1 [compound 57, 5-(3-fluorophenyl)-N-({5-methyl-6-[2-(trifluoromethyl)pyridin-4-yl]pyridin-3-yl}methyl)pyridine-2-carboxamide] |
| 0.41 | Cc1cc(CNC(=O)c2ccc(-c3cnccn3)cc2)cnc1-c1ccnc(C(F)(F)F)c1 [compound 58, N-((3-Methyl-2′-(trifluoromethyl)-2,4′-bipyridin-5-yl)methyl)-4-(pyrazin-2-yl)benzamide] |
| 0.29 | Cc1cc(-c2ncc(CNC(=O)c3ccc(-c4cccc(F)c4)cn3)cc2F)ccn1 [compound 59, N-{[5-fluoro-6-(2-methylpyridin-4-yl)pyridin-3-yl]methyl}-5-(3-fluorophenyl)pyridine-2-carboxamide] |
| 0.26 | Cc1cc(-c2ncc(CNC(=O)c3ccc(-c4cnccn4)cn3)cc2F)ccn1 [compound 60, N-{[5-fluoro-6-(2-methylpyridin-4-yl)pyridin-3-yl]methyl}-5-(pyrazin-2-yl)pyridine-2-carboxamide] |
| 0.62 | Cc1cc(-c2ncc(CNC(=O)c3ccc(-c4cnccn4)nc3)cc2F)ccn1 [compound 61, N-{[5-fluoro-6-(2-methylpyridin-4-yl)pyridin-3-yl]methyl}-6-(pyrazin-2-yl)pyridine-3-carboxamide] |

Second part, the compound before the results:

| SMILES | IC50 [nM] |
| --- | --- |
| O=C(NCc1ccc(-c2ccnc(C(F)(F)F)c2)nc1)c1ccc(-c2cccc(F)c2)cn1 [compound 33, 5-(3-Fluorophenyl)-N-((2′-(trifluoromethyl)-2,4′-bipyridin-5-yl)methyl)picolinamide] | 0.2 |
| Cc1cc(-c2ccc(CNC(=O)c3ccc(-c4ccc(F)cc4)cn3)cn2)ccn1 [compound 35, 5-(4-fluorophenyl)-N-{[6-(2-methylpyridin-4-yl)pyridin-3-yl]methyl}pyridine-2-carboxamide] | 4.9 |
| Cc1cc(-c2ncc(CNC(=O)c3ccc(-c4cccc(F)c4)cn3)cc2C)ccn1 [compound 36, 5-(3-fluorophenyl)-N-{[5-methyl-6-(2-methylpyridin-4-yl)pyridin-3-yl]methyl}pyridine-2-carboxamide] | 0.3 |
| O=C(NCc1ccc(-c2ccnc(F)c2)nc1)c1ccc(-c2ccnnc2)cn1 [compound 37, N-{[6-(2-fluoropyridin-4-yl)pyridin-3-yl]methyl}-5-(pyridazin-4-yl)pyridine-2-carboxamide] | 42 |
| CN(C)c1ccc(-c2ccc(C(=O)NCc3ccc(-c4ccnc(F)c4)nc3)nc2)cn1 [compound 38, 6′-(Dimethylamino)-N-((2′-fluoro-2,4′-bipyridin-5-yl)methyl)-3,3′-bipyridine-6-carboxamide] | 0.56 |
| Cc1cc(CNC(=O)c2ccc(-c3cnccn3)cn2)cnc1-c1ccnc(F)c1 [compound 39, N-{[6-(2-fluoropyridin-4-yl)-5-methylpyridin-3-yl]methyl}-5-(pyrazin-2-yl)pyridine-2-carboxamide] | 0.26 |
| Cc1cc(CNC(=O)c2ccc(-c3cnccn3)nc2)cnc1-c1ccnc(F)c1 [compound 40, N-{[6-(2-fluoropyridin-4-yl)-5-methylpyridin-3-yl]methyl}-6-(pyrazin-2-yl)pyridine-3-carboxamide] | 0.76 |
| O=C(NCc1ccc(-c2ccnc(C(F)(F)F)c2)nc1)c1ccc(-c2cnccn2)cn1 [compound 41, 5-(Pyrazin-2-yl)-N-((2′-(trifluoromethyl)-2,4′-bipyridin-5-yl)methyl)picolinamide] | 0.36 |
| O=C(NCc1ccc(-c2ccnc(C(F)(F)F)c2)nc1)c1ccc(-c2cnccn2)nc1 [compound 42, 6-(Pyrazin-2-yl)-N-((2′-(trifluoromethyl)-2,4′-bipyridin-5-yl)methyl)nicotinamide] | 0.79 |
| CS(=O)(=O)c1cccc(-c2ccc(C(=O)NCc3ccc(-c4ccnc(F)c4)nc3)nc2)c1 [compound 43, N-((2′-Fluoro-2,4′-bipyridin-5-yl)methyl)-5-(3-(methylsulfonyl)phenyl)picolinamide] | 718 |
| O=C(NCc1ccc(-c2ccnc(F)c2)nc1)c1ccc(-n2ccccc2=O)cn1 [compound 44, N-((2′-fluoro-[2,4′-bipyridin]-5-yl)methyl)-2-oxo-2H-[1,3′-bipyridine]-6′-carboxamide] | 465 |
| Cc1cc(-c2ccc(CNC(=O)c3ccc(-c4ccccc4C)cc3)cn2)ccn1 [compound 45, 4-(2-methylphenyl)-N-{[6-(2-methylpyridin-4-yl)pyridin-3-yl]methyl}benzamide] | 3.5 |
| CC(=O)N1CCN(c2ccc(C(=O)NCc3cnc(-c4ccnc(C(F)(F)F)c4)c(F)c3)cn2)CC1 [compound 46, 6-(4-Acetylpiperazin-1-yl)-N-((3-fluoro-2′-(trifluoromethyl)-[2,4′-bipyridin]-5-yl)methyl)nicotinamide] | 4.2 |
| Cc1cc(CNC(=O)c2ccc(-c3cccc(F)c3)nc2)cnc1-c1ccnc(C(F)(F)F)c1 [compound 47, 6-(3-fluorophenyl)-N-({5-methyl-6-[2-(trifluoromethyl)pyridin-4-yl]pyridin-3-yl}methyl)pyridine-3-carboxamide] | 0.26 |
| CC(=O)N1CCN(c2ccc(C(=O)NCc3cnc(-c4ccnc(C(F)(F)F)c4)c(C)c3)nc2)CC1 [compound 48, 5-(4-Acetylpiperazin-1-yl)-N-((3-methyl-2′-(trifluoromethyl)-2,4′-bipyridin-5-yl)methyl)picolinamide] | 26 |
| COC(=O)N1CCN(c2ccc(C(=O)NCc3cnc(-c4ccnc(C(F)(F)F)c4)c(F)c3)nc2)CC1 [compound 49, Methyl 4-(6-((3-fluoro-2′-(trifluoromethyl)-2,4′-bipyridin-5-yl)methylcarbamoyl)pyridin-3-yl)piperazine-1-carboxylate] | 0.24 |
| Cc1cc(-c2ccc(CNC(=O)c3ccc(-c4ccccc4)c(C)c3)cn2)ccn1 [compound 50, 3-methyl-N-{[6-(2-methylpyridin-4-yl)pyridin-3-yl]methyl}-4-phenylbenzamide] | 3 |
